According to US20260306421A1, “SYSTEMS AND METHODS FOR TRANSDERMAN PATCH DELIVERY” (VITAMAX PATCH WHOLESALER LLC, priority 2022, published 2026):
Marks after values point to notes of the source that are not given here.

Key:
[1] = Visual skin damage / necrosis after iron permeation study; settings: after 24 h permeation study, porcine skin
Excerpt: (§1) On the day of the experiment, the skin was defrosted. For the full thickness studies, the subcutaneous fat removed (2.5 mm thick) and for the dermatomes skin studies the tissued was dermatomed to a 1 mm thickness. The tissue was cut into the appropriate size sections (2.19±0.21 cm^2) and mounted between donor and receiver compartments of Franz diffusion cells with the SC facing the donor compartment. Each cell was sealed using parafilm and 12 mm magnetic stir bars were placed into the receiver compartment. The receiver compartment was filled with the desired receiver solution and the Franz cells were placed in a stirring water bath at 37° C. Cells were allowed to equilibrate for 30 min after which the receiver fluid using was mixed using a syringe and the “zero hour” sample was withdrawn from the arm and compensate with the same volume of fresh pre-warmed solution. Following zero-hour sampling, the donor solution was placed in the donor compartment and covered with parafilm. Samples were withdrawn and compensated with fresh receiver solution at set time intervals for a 24 h duration. The iron in each sample was quantified using the method specified in Section 2.2.2.1. […] There was no matrix interference noted in the assay. […] For iron maltol a 80:20 PG:water receiver was used along with a complementary calibration for iron assay (iron chloride in PG:water). The donor solution for the iron maltol made at pH 1.6 was 200 μL of 100 mg/mL complex in Transcutul®, for iron maltol made at pH 4 the donor solution was 200 μL of 23 mg/mL complex in PG and for iron maltol made at pH 4 the donor solution was 150 μL of 16 mg/mL complex in 7.5:1.5:1:1 water:PG:dimethicone:ethanol.

[2] = Franz cell porcine skin permeation and deposition of iron from solutions; format: in vitro ADME; settings: for total delivered dose: PG solution; for permeation and deposition in the skin: solutions
Procedure: The permeation of the iron complexes from the formulations into and across porcine skin mounted on Franz cells with a receiver fluid was tested (FIG. 4). This was based on the principles of the FDA, SUPAC-SS guidelines. The developed colorimetric assay method was used for iron quantification.
as §1
Once the permeation studies were completed the donor solutions were collected into bottles containing the extraction solution. This was followed by skin surface cleaning using four cotton buds, the first two were wetted by the extraction fluid and the second two were used dry. Then two tape striping procedures were performed using 2 tapes to remove any iron on the skin surface with the tape being added to the donor solution and cotton buds in the donor recover vial. For the full skin thickness skin, the Stratum corneum, the dermal and the epidermal layers were isolated in the same way as the recovery method (Section 2.3.2.1). Extraction fluid (50:50 PBS:ethanol) was then added to the tissues, 4 mL to the Stratum corneum, and 2 mL for each of the epidermis and dermis. For the dermatomed skin the whole skin section was chopped up and placed in a 2 mL extraction fluid (ethanol).
The Stratum corneum samples were placed on vibrating plate for a minimum of 2 h to extract the iron and then vortexed prior assay. The epidermis, dermis or dermatomed samples however were incubated with the extraction fluid for 1 h after which were transferred to Eppendorf tubes, one stainless steel 5 mm bead was added and the samples were loaded into the TissuLyser II (Qiagen, Germany) for 30-15 min at 30 Hz. The samples were then centrifuged (5 min at 13,000 rpm) and supernatant assayed.

[3] = Solubility of iron chloride hexahydrate and iron complexes (visual / assayed); format: physicochemical
Procedure: Due to the high number of test samples (6 complexes plus the starting material, iron chloride hexahydrate) a visual solubility screen was used to screen the solubility in a range of solvents. […] Quantitative determination was performed by either incubating the complex in excess in the solvent using a shaking 37° C. water bath for 48 h or sonicating it for 2 hours at 40° C. or leaving overnight on a 50° C. hot plate. Once incubation period was completed, the exact solubility in a particular solvent was assayed (using the iron assay) after centrifugation (i.e. assay iron content in the supernatant using the Ferrozine® assay).

[4] = Iron complex adhesive compatibility and loading screen; format: physicochemical
Procedure: Pre-formulation studies were performed to determine the compatibility of the iron complexes with a range of transdermal patch adhesives (Table 15).
The compatibility of the complexes with the patch adhesives was assessed by mixing and visually checking the clarity of the mixture.
In the adhesives that were computable with the iron complexes the maximum drug loading of the complexes in the adhesive following solvent evaporation was determined. This was achieved by mixing the drug, adhesive and co-solvents until a clear solution was obtained at different drug:adhesive ratios and placing few drops of the mixture onto the patch backing sheet, leaving it to dry for 3-4 h, and examining the formed film on the surface of the backings for evidence of drug crystals.
Following complete drying of the solvents, the adhesive layer was covered by a release liner, compressed, and then cut using 34 mm circular manual die cutter (FIG. 23).

[5] = Solubility of zinc chloride and zinc complexes (visual / HPLC); format: physicochemical
Procedure: Accurate measurement of the solubility was then repeated for some of the solvent systems by HPLC. In the HPLC solubility studies, an excess of the test agents was loaded into 2 mL of each test solvent. The solutions were left stirring overnight at 32° C. […] The drug suspensions were then centrifuged, the supernatant diluted, and each sample concentration was measured using HPLC.

[6] = PG, 370 mg elemental iron dosed, 2 cm^2, 24 h

CCc1occc(=O)c1[O-].CCc1occc(=O)c1[O-].CCc1occc(=O)c1[O-].[Fe+3] [Iron ethyl maltol, iron ethyl maltol]
skin damage / necrosis [1]: did not cause any visible skin damage
total delivered dose ([2]; 24 h): 12 μg/cm^2
Solubility of complex (visual) ([3]; Chloroform): ≥20 mg/mL Iron ethyl maltol*
Solubility of complex (visual) ([3]; Ethyl acetate): <8 mg/mL Iron ethyl maltol*
Solubility of complex (visual) ([3]; Glycerol): <8 mg/mL Iron ethyl maltol*
Solubility of complex (visual) ([3]; Hexane): <8 mg/mL Iron ethyl maltol*
Solubility of complex (visual) ([3]; Liquid Paraffin): <8 mg/mL Iron ethyl maltol*
Solubility of complex (visual) ([3]; Methanol): ≥20 mg/mL Iron ethyl maltol*
Solubility of complex (visual) ([3]; Miglyol): <8 mg/mL Iron ethyl maltol*
Solubility of complex (visual) ([3]; Oleic acid): <8 mg/mL Iron ethyl maltol*
Solubility of complex (visual) ([3]; Transcutul): <8 mg/mL Iron ethyl maltol*
Solubility of complex (visual) ([3]; Triaceten): <8 mg/mL Iron ethyl maltol*
compatibility with adhesives [4]: only compatible with DURO-TAK 9301
(maximum) complex loading achieved in adhesive ([4]; methanol stock solution 10 mg/mL): 4%
complex loading achieved in adhesive patch ([4]; methanol stock solution 18 mg/mL): 8.5%

Cc1occc(=O)c1[O-].Cc1occc(=O)c1[O-].Cc1occc(=O)c1[O-].[Fe+3] [Iron maltol made at pH 1.6, iron maltol]
skin damage / necrosis [1]: caused skin necrosis
permeation and deposition in the skin ([2]; 24 h): permeated and deposited in the skin
Solubility of complex (visual) ([3]; PEG400): <6 mg/mg/mL
Solubility of complex (visual) ([3]; PG): <6 mg/mg/mL
Solubility of complex ([3]; Transcutul): 100 mg/mg/mL
Solubility, equivalent elemental iron ([3]; Transcutul): to 13 mg/ mg/mL

Cc1occc(=O)c1[O-].Cc1occc(=O)c1[O-].Cc1occc(=O)c1[O-].[Fe+3] [Iron maltol made at pH 4, iron maltol]
skin damage / necrosis [1]: without inducing skin necrosis
total delivered dose ([2]; 24 h): 65 μg/cm^2
permeation and deposition in the skin ([2]; 24 h): permeated and deposited in the skin
Solubility of complex ([3]; PEG400): 20 mg/mg/mL
Solubility, equivalent elemental iron ([3]; PEG400): to 2.7 mg/ mg/mL
Solubility of complex ([3]; PG): 17 ± 5 mg/mg/mL
Solubility, equivalent elemental iron ([3]; PG): to 2.3 ± 0.6 mg/mL
Solubility ([3]; PG and PEG400 (conclusions)): 18 mg/mL
Solubility of complex (visual) ([3]; Transcutul): <6 mg/mL

[Cl-].[Cl-].[Zn+2] [Zinc Chloride, Zinc chloride, reference compound]
Elemental zinc solubility (visual) ([5]; solvent PEG400, visual solubility (*)): ~2.7* mg/mL
Elemental zinc solubility evaluated by HPLC ([5]; solvent PG): 2.7 mg/mL

O.O.O.O.O.O.[Cl-].[Cl-].[Cl-].[Fe+3] [Iron chloride hexahydrate, reference compound]
skin damage / necrosis [1]: necrosis of the skin
elemental iron permeated the skin [2, 6]: 180 mg
elemental iron permeated, percent of dose [2, 6]: 48%
dose above the desired target (4.6 mg) ([2]; PG, 24 h): 40 times
Solubility, equivalent elemental iron ([3]; PG): 370 mg/mL
Solubility ([3]; PG, as iron chloride hexahydrate): 1400 mg/mL
